Among the test systems are A549 NSCLC; HOP-92 NSCLC; MALME-3M melanoma; NCI-H522 lung; RPMI-8226 leukemia; SK-MEL-5 melanoma; SK-OV-3 ovarian; SN12C renal; SW-620 colon; UO-31 renal.
Holding throughout (assay): NCI anticancer screen, dose series, 48 h

Molecules are shown by their SMILES.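 Briefly, cells in 96-well plates were exposed to five compound concentrations for 48 h, and endpoints were estimated by linear interpolation. The concentration for 50% growth inhibition is given as GI50. TGI denotes the concentration required for complete inhibition of growth.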 Bounds are passed on as bounds.

In the case of `COc1cc(-c2nc3ccccc3[nH]2)ccc1OCC(=O)N=Nc1c(O)[nH]c2ccc(Cl)cc12`, the GI50 in the assay with A549 NSCLC is 3.72 µM; with HOP-92 NSCLC it was 1.5 µM; with MALME-3M melanoma, 1.53 µM; in the assay on NCI-H522 lung, 1.48 µM; in the assay on RPMI-8226 leukemia it was 1.12 µM; in the assay with SK-MEL-5 melanoma, 1.72 µM. Besides, the GI50 in the assay on SK-OV-3 ovarian was 1.9 µM; in the assay on SN12C renal it was 1.61 µM; in the assay with SW-620 colon, 0.748 µM; in the assay on UO-31 renal it was 52.3 µM. Also, the TGI is greater than 100 µM in the assay on A549 NSCLC; 3.07 µM in the assay on HOP-92 NSCLC; 2.93 µM with MALME-3M melanoma; 3.48 µM in the assay with NCI-H522 lung; 3.76 µM with RPMI-8226 leukemia; 3.2 µM in the assay with SK-MEL-5 melanoma. For the same molecule, the TGI in the assay with SK-OV-3 ovarian was 3.93 µM; with SN12C renal, 3.06 µM; in the assay with SW-620 colon, 2.42 µM; with UO-31 renal it was greater than 100 µM.
Consider `CCC(C(=O)c1cccs1)C(O)(C(F)(F)F)C(F)(F)F` (stereo not given), for which the TGI in the assay on A549 NSCLC, in the assay with HOP-92 NSCLC, in the assay on MALME-3M melanoma, in the assay with NCI-H522 lung, with RPMI-8226 leukemia and with SK-MEL-5 melanoma was greater than 100 µM in each case. In addition, the TGI in the assay on SK-OV-3 ovarian, in the assay on SN12C renal, with SW-620 colon and in the assay on UO-31 renal was greater than 100 µM each time.
Consider `CC(N)(Cc1c[nH]c2ccccc12)C(=O)O` (stereo not given), for which the GI50 in the assay with A549 NSCLC is greater than 2500 µM; with HOP-92 NSCLC it was 1800 µM; in the assay on MALME-3M melanoma it was 522 µM; in the assay with NCI-H522 lung, greater than 2500 µM; in the assay with RPMI-8226 leukemia, greater than 2500 µM; in the assay with SK-MEL-5 melanoma, 2350 µM. For the same molecule, the GI50 in the assay with SK-OV-3 ovarian, in the assay with SN12C renal, with SW-620 colon and in the assay on UO-31 renal was greater than 2500 µM throughout. For the same molecule, the TGI in the assay on A549 NSCLC, in the assay with HOP-92 NSCLC, in the assay on MALME-3M melanoma, in the assay with NCI-H522 lung, in the assay on RPMI-8226 leukemia and in the assay on SK-MEL-5 melanoma was greater than 2500 µM each time. For the same molecule, the TGI with SK-OV-3 ovarian, in the assay on SN12C renal, in the assay with SW-620 colon and in the assay with UO-31 renal was greater than 2500 µM each time.
For `COc1ccc(S(=O)(=O)NC2=NCCN2C(=S)SN2CCn3c2nsc3=S)cc1OC`, the GI50 in the assay with A549 NSCLC was 27.9 µM; in the assay on HOP-92 NSCLC it was 23.2 µM; in the assay with MALME-3M melanoma it was 16.7 µM; with NCI-H522 lung, 13 µM; in the assay on RPMI-8226 leukemia, 7.93 µM; in the assay with SK-MEL-5 melanoma it was 25.3 µM. Besides, the GI50 in the assay with SK-OV-3 ovarian is 21.9 µM; with SN12C renal, 22.6 µM; in the assay with SW-620 colon it was 18.9 µM; in the assay on UO-31 renal, 35.8 µM. Further, the TGI was greater than 100 µM in the assay on A549 NSCLC; 48.6 µM with HOP-92 NSCLC; 43.7 µM with MALME-3M melanoma; 38.8 µM in the assay on NCI-H522 lung; 27.5 µM in the assay with RPMI-8226 leukemia; 74.1 µM in the assay on SK-MEL-5 melanoma. For the same molecule, the TGI in the assay with SK-OV-3 ovarian is 55.2 µM; with SN12C renal, 54.9 µM; with SW-620 colon, greater than 100 µM; in the assay on UO-31 renal, greater than 100 µM.
Regarding `CC(C)(C)OC(=O)N1CC(Cn2cc(C(F)(F)F)c3c(Cl)ncnc32)C1`, the GI50 was 14 µM in the assay with A549 NSCLC; 4.5 µM in the assay on HOP-92 NSCLC; 12.4 µM in the assay on MALME-3M melanoma; 13.3 µM with NCI-H522 lung; 2.67 µM in the assay on RPMI-8226 leukemia; 1.79 µM in the assay on SK-MEL-5 melanoma. For the same molecule, the GI50 in the assay with SK-OV-3 ovarian was 2.91 µM; with SN12C renal it was 2.32 µM; in the assay with SW-620 colon, 3.3 µM; with UO-31 renal, 2.71 µM. Moreover, the TGI with A549 NSCLC was determined as 28.2 µM; with HOP-92 NSCLC, 21.4 µM; in the assay on MALME-3M melanoma, 26.6 µM; in the assay with NCI-H522 lung, 28.4 µM; in the assay on RPMI-8226 leukemia, 6.33 µM; with SK-MEL-5 melanoma, 3.21 µM. Moreover, the TGI with SK-OV-3 ovarian amounted to 8.21 µM; in the assay on SN12C renal it was 6.12 µM; in the assay with SW-620 colon, 10.6 µM; in the assay with UO-31 renal, 10.8 µM.
As for `C[n+]1c2cc(N)ccc2cc2ccc(N)cc21` (tested in a mixture with another compound), the GI50 in the assay on A549 NSCLC was 0.0749 µM; with HOP-92 NSCLC it was 0.273 µM; with MALME-3M melanoma it was 0.258 µM; in the assay on NCI-H522 lung, 0.217 µM; in the assay on RPMI-8226 leukemia, 0.345 µM; in the assay with SK-MEL-5 melanoma it was 0.616 µM. Also, the GI50 in the assay with SK-OV-3 ovarian is 1.35 µM; in the assay on SN12C renal, 0.326 µM; in the assay on SW-620 colon it was 0.0791 µM; in the assay on UO-31 renal, 0.106 µM. The TGI with A549 NSCLC was determined as 10.1 µM; in the assay on HOP-92 NSCLC it was 1.09 µM; with MALME-3M melanoma, 1.04 µM; with NCI-H522 lung, 0.839 µM; in the assay with RPMI-8226 leukemia, 1.68 µM; with SK-MEL-5 melanoma, 2.25 µM. Moreover, the TGI in the assay on SK-OV-3 ovarian worked out at 6.15 µM; in the assay with SN12C renal it was 1.75 µM; with SW-620 colon it was 6.2 µM; in the assay with UO-31 renal it was 0.598 µM.

The values above are taken from PubChem BioAssay (NCI).
